Test results from patent publication US7563592B2, “Alizarin-based chromogenic substrates, their uses and composition containing same” (Biomerieux, S.A., priority 1999, dated 2009).

Experiments:
[1] = tested on: Klebsiella pneumoniae 023; assay: Comparison of glucoside substrates in semi-solid Columbia medium (Example 7); type: cell-based
Citrobacter koseri 059 = assay: as above; type: cell-based
[2] = tested on: Enterococcus faecalis 117; assay: as above; type: cell-based
[3] = tested on: eight strains possessing β-galactosidase activity; assay: Fluorescent check of β-galactosidase activity in the eight discordant strains (Example 2); type: cell-based; conditions: all eight strains that selectively hydrolyzed Alizarin-2-β-D-galactoside
From the text: The vast majority of strains (96.5%) reacted in exactly the same way—i.e. either positively or negatively—with both substrates. Eight strains selectively hydrolyzed Alizarin-2-β-D-galactoside. […] Therefore, these substrates are extremely sensitive and can be used at very low concentrations.

Escherichia coli 115 = assay: β-galactosidase detection in semi-solid Columbia medium (Example 1); type: cell-based; conditions: 0.2 g/l, no iron citrate
[4] = tested on: Klebsiella pneumoniae 023; assay: as above; type: cell-based; conditions: 0.2 g/l, no iron citrate; 48 H
Serratia marcescens 042 = assay: as above; type: cell-based; conditions: 0.2 g/l, no iron citrate
Listeria innocua 036 = assay: β-glucosidase detection in API strip wells (Example 6); conditions: 0.4 g/l
[5] = tested on: Listeria monocytogenes 022; assay: as above; conditions: 0.4 g/l
[6] = tested on: Klebsiella pneumoniae 023; assay: as above; conditions: 0.4 g/l
Enterococcus faecium 009 = assay: as above; conditions: 0.4 g/l
eight (8) species tested = assay: β-glucosidase detection in API strip wells, all species together (Example 6); type: cell-based; conditions: of the eight (8) species tested; 0.4 g/l
Listeria ivanovii 018 = assay: β-glucosidase detection in API strip wells (Example 6); conditions: 0.4 g/l
Listeria seeligeri 080 = assay: as above; conditions: 0.4 g/l; 24 H
[7] = 0.05 g/l + iron citrate 0.05 g/l, 18 H
[8] = 0.05 g/l + iron citrate 0.05 g/l, 24 H
[9] = 0.05 g/l + iron citrate 0.05 g/l, 48 H
[10] = 0.1 g/l + iron citrate 0.05 g/l, 18 H
[11] = 0.1 g/l + iron citrate 0.05 g/l, 24 H
[12] = 0.1 g/l + iron citrate 0.05 g/l, 48 H
[13] = 0.15 g/l, no iron citrate, 18 H
[14] = 0.15 g/l, no iron citrate, 24 H
[15] = 0.15 g/l, no iron citrate, 48 H

SMILES: O=C1c2ccccc2C(=O)c2c1ccc(O)c2O[C@@H]1O[C@H](CO)[C@@H](O)[C@H](O)[C@H]1O [1-Alizarin1-β-D-glucoside, Alizarin-1-β-D-glucoside]
- Color [1, 7]: Purple
- Intensity [1, 7]: 2.5 arbitrary units
- Color [1, 8]: Purple
- Intensity [1, 8]: 3 arbitrary units
- Color [1, 9]: Purple
- Intensity [1, 9]: 3.5 arbitrary units
- Color [1, 10]: Purple
- Intensity [1, 10]: 3.5 arbitrary units
- Color [1, 11]: Purple
- Intensity [1, 11]: 4 arbitrary units
- Color [1, 12]: Purple
- Intensity [1, 12]: 4 arbitrary units
- Color (Citrobacter koseri 059; [7]): Mauve
- Intensity (Citrobacter koseri 059; [7]): 1.5 arbitrary units
- Color (Citrobacter koseri 059; [8]): Mauve
- Intensity (Citrobacter koseri 059; [8]): 2 arbitrary units
- Color (Citrobacter koseri 059; [9]): Mauve
- Intensity (Citrobacter koseri 059; [9]): 2.5 arbitrary units
- Color (Citrobacter koseri 059; [10]): Mauve
- Intensity (Citrobacter koseri 059; [10]): 2.5 arbitrary units
- Color (Citrobacter koseri 059; [11]): Mauve
- Intensity (Citrobacter koseri 059; [11]): 3 arbitrary units
- Color (Citrobacter koseri 059; [12]): Mauve
- Intensity (Citrobacter koseri 059; [12]): 4 arbitrary units
- Color [2, 7]: Purple
- Intensity [2, 7]: 3.5 arbitrary units
- Color [2, 8]: Purple
- Intensity [2, 8]: 4 arbitrary units
- Color [2, 9]: Purple
- Intensity [2, 9]: 4 arbitrary units
- Color [2, 10]: Purple
- Intensity [2, 10]: 3.5 arbitrary units
- Color [2, 11]: Purple
- Intensity [2, 11]: 4 arbitrary units
- Color [2, 12]: Purple
- Intensity [2, 12]: 4 arbitrary units

SMILES: Cc1cc(=O)oc2cc(O[C@@H]3O[C@H](CO)[C@H](O)[C@H](O)[C@H]3O)ccc12 [4-Methylumbelliferyl-β-D-galactoside]
- signal in the presence of the substrate [3]: production of a fluorescent signal

SMILES: OC[C@H]1O[C@@H](Oc2c[nH]c3cc(Cl)ccc23)[C@H](O)[C@@H](O)[C@H]1O [6-Chloro-3-indolyl-β-D-galactoside, reference compound]
- Color (Escherichia coli 115; 18 H): pink
- Intensity (Escherichia coli 115; 18 H): 3.5
- Color (Escherichia coli 115; 24 H): pink
- Intensity (Escherichia coli 115; 24 H): 3.5
- Color (Escherichia coli 115; 48 H): pink
- Intensity (Escherichia coli 115; 48 H): 3.5
- Color [4]: pink
- Intensity [4]: 0.3
- Color (Serratia marcescens 042; 18 H): pink
- Intensity (Serratia marcescens 042; 18 H): 0.3
- Color (Serratia marcescens 042; 24 H): pink
- Intensity (Serratia marcescens 042; 24 H): 0.8
- Color (Serratia marcescens 042; 48 H): pink
- Intensity (Serratia marcescens 042; 48 H): 3.5

SMILES: OC[C@H]1O[C@@H](Oc2c[nH]c3cc(Cl)ccc23)[C@H](O)[C@@H](O)[C@@H]1O [reference compound]
- Color observed (Listeria innocua 036; 4 H): Pink
- Color observed (Listeria innocua 036; 24 H): Pink
- Color [1, 13]: Pink
- Intensity [1, 13]: 2 arbitrary units
- Color [1, 14]: Pink
- Intensity [1, 14]: 2.5 arbitrary units
- Color [1, 15]: Pink
- Intensity [1, 15]: 3 arbitrary units
- Color observed ([5]; 4 H): Pink
- Color observed ([5]; 24 H): Pink
- Color observed ([6]; 4 H): Pink
- Color observed ([6]; 24 H): Pink
- Color observed (Enterococcus faecium 009; 4 H): Pink
- Color observed (Enterococcus faecium 009; 24 H): Pink
- species in which activity was detected (eight (8) species tested): 6 species
- Color (Citrobacter koseri 059; [13]): Pink
- Intensity (Citrobacter koseri 059; [13]): 0.5 arbitrary units
- Color (Citrobacter koseri 059; [14]): Pink
- Intensity (Citrobacter koseri 059; [14]): 1 arbitrary units
- Color (Citrobacter koseri 059; [15]): Pink
- Intensity (Citrobacter koseri 059; [15]): 2 arbitrary units
- Color [2, 13]: Pink
- Intensity [2, 13]: 1.5 arbitrary units
- Color [2, 14]: Pink
- Intensity [2, 14]: 2 arbitrary units
- Color [2, 15]: Pink
- Intensity [2, 15]: 2.5 arbitrary units
- Color observed (Listeria ivanovii 018; 4 H): Pink
- Color observed (Listeria ivanovii 018; 24 H): Pink
- Color observed (Listeria seeligeri 080): Pink
